Assay results reported in patent US10189859B2, “Derivatives of 6-(2,3-dichlorophenyl)-1,2,4-triazin-5-amine” (Nektar Therapeutics, priority 2013, dated 2019).
Where “and” joins values, the source holds several entries; their conditions need not be identical. Equal values may be shown once. Read-outs that look alike come from different tables or passages of the source. Values belong to the compound of their own block, whether it stands above or below them.

How the values were obtained:
[1] = tested on: Na+ channels; assay: Blockage of Na+ channels, whole-cell patch clamp, isolated dorsal root ganglion cells; format: cell-based, rat
Method: Currents are measured using the whole-cell variant of the patch clamp method. INa is elicited by a pulse to −20 mV from a holding potential of −120 mV or −70 mV to measure blockade at the inactivated state (pulse duration of 40 ms), Peak inward current is measured for INa. Pacing rates of […] are examined. Increasing concentrations of test compounds are added to the cells in a cumulative manner to generate a concentration-response relationship which is utilized to calculate the IC50.

[2] = target: Nav1.7 sodium channels (human SCN9A gene) (Homo sapiens (Human), UniProt Q15858); assay: Automated patch clamp (IonWorks Barracuda) of Nav1.7 stably expressed in CHO cells; format: cell-based
Sequence of Nav1.7 sodium channels (human SCN9A gene) (Q15858 whole entry): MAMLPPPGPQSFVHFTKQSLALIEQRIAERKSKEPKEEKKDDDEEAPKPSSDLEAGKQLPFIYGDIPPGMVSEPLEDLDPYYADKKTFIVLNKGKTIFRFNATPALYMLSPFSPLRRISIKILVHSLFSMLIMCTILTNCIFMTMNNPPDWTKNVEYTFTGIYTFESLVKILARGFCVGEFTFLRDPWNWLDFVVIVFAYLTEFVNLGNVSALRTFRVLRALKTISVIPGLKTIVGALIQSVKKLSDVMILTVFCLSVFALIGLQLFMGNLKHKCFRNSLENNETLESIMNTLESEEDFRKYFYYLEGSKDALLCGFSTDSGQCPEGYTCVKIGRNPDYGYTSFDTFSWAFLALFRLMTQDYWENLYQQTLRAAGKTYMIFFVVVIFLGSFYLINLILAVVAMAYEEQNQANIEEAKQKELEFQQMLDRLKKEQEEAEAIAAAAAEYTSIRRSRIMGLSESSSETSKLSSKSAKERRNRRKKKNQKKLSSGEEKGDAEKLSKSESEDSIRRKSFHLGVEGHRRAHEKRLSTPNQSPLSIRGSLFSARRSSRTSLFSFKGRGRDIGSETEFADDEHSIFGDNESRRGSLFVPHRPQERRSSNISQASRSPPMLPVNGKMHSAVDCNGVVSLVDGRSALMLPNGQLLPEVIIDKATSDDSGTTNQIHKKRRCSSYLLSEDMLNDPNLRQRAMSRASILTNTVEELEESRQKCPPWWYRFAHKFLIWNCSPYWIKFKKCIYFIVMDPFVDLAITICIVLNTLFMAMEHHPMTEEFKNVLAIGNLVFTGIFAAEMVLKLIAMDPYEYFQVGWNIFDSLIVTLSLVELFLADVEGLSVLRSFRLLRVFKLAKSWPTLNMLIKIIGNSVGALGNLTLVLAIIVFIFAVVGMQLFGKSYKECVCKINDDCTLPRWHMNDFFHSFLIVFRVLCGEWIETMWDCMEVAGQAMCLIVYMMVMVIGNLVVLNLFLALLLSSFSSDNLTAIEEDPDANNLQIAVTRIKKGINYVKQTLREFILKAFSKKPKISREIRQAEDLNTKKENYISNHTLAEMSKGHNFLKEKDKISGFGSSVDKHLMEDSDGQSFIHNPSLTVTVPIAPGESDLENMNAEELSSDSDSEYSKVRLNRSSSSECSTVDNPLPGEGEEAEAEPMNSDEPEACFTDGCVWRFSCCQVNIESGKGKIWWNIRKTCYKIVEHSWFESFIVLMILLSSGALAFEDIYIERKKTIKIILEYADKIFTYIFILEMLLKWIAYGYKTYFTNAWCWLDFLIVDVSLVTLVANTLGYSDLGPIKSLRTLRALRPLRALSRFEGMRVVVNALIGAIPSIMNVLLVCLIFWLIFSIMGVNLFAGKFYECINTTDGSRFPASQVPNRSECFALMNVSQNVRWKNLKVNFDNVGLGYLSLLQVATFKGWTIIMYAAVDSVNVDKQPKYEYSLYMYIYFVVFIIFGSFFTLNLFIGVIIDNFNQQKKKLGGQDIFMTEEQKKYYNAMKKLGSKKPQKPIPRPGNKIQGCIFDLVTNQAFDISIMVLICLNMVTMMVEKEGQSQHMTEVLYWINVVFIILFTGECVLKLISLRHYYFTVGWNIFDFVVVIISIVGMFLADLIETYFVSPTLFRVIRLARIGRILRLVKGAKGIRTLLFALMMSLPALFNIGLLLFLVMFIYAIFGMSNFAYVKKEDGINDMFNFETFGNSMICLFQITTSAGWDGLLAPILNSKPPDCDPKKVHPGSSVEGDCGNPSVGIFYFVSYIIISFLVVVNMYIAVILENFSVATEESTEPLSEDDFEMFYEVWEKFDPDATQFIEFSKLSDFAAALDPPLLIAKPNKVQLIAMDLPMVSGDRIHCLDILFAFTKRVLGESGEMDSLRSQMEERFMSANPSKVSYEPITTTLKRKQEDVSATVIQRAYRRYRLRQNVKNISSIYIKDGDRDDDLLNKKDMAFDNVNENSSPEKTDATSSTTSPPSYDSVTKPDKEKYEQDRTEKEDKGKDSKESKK
In short: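 Whole-cell currents from CHO cells, holding −90 mV. Tonic block: 200 ms pre-pulse to −120 mV, step to 0 mV. Inactivated-state block: 20 ms at −100 mV then 20 ms at 0 mV. Percent block of peak inward Na+ current versus vehicle across concentrations gave IC50.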

[3] = Pharmacokinetics after intravenous or oral dosing, plasma LC/MS/MS; format: in vivo; details: fasted male Sprague Dawley rats
Method: Fasted, male Sprague Dawley rats were dosed intravenously or orally. Blood samples were collected at pre-determined time points and plasma was separated. Test article concentrations were determined in plasma by a LC/MS/MS method. Non compartmental analysis was performed to estimate the area under the plasma concentration vs. time curve (AUC). Clearance parameters (CL), bioavailabilities (F) and half-lives were calculated.

[4] = tested on: AFP model; assay: AFP animal model; format: in vivo
Text: (§1) The efficacy of the compounds when evaluated in additional well-known animal models, AFP, RR, and hyperalgesia, was also explored.

[5] = tested on: RR model; assay: RR animal model; format: in vivo
Text: as §1

[6] = inactivated state block, CHO cells, read-out: Inactivated state IC50
[7] = read-out: Inactivated state IC50
[8] = tonic (resting) state block, CHO cells, read-out: Tonic state IC50
[9] = AFP, Ph 2, timepoint 0.5 h, minimum effective dose

SMILES: COC[C@@H](O)CN1CCN(c2nnc(-c3cccc(Cl)c3Cl)c(N)n2)CC1 [Compound 97, (S)-1-(4-(5-amino-6-(2,3-dichlorophenyl)-1,2,4-triazin-3-yl)piperazin-1-yl)-3-methoxypropan-2-ol]
IC50 ([1]; Vh −70 mV (inactivated state), pacing 0.1 Hz, read-out: IC50 (μM) 0.1 Hz): 39.5 µM
IC50 ([1]; Vh −70 mV (inactivated state), pacing 3 Hz, read-out: IC50 (μM) 3 Hz): 21.5 µM
IC50 ([1]; Vh −70 mV (inactivated state), pacing 10 Hz, read-out: IC50 (μM) 10 Hz): 16.5 µM
IC50 ([1]; Vh −120 mV, pacing 0.1 Hz, read-out: IC50 (μM) 0.1 Hz): > 100 µM
IC50 ([1]; Vh −120 mV, pacing 3 Hz, read-out: IC50 (μM) 3 Hz): > 100 µM
IC50 ([1]; Vh −120 mV, pacing 10 Hz, read-out: IC50 (μM) 10 Hz): 74.4 µM
IC50 [2, 6]: 90.5 µM
IC50 [2, 7]: < 50 µM and 82.2 µM
IC50 ([2]; read-out: Tonic state IC50): > 200 µM
pharmacokinetics (qualitative ranking of the compounds tested) [3]: most favorable pharmacokinetics
exposure after oral dosing (qualitative ranking) [3]: best exposure after oral dosing

SMILES: Nc1nc(N2CCN(C[C@H](O)CCl)CC2)nnc1-c1cccc(Cl)c1Cl [Compound 207, (S)-1-(4-(5-amino-6-(2,3-dichlorophenyl)-1,2,4-triazin-3-yl)piperazin-1-yl)-3-chloropropan-2-ol]
IC50 [2, 6]: 107 µM and 133 µM
IC50 [2, 8]: > 200 µM
ED50 ([4]; 0.5 h): 476 mg/kg
MED (mg/kg) [4, 9]: 300 (Ph 2) mg/kg
exposure after oral dosing (qualitative ranking) [3]: best exposure after oral dosing

pharmacokinetics (qualitative ranking of the compounds tested) [3]: most favorable pharmacokinetics
exposure after oral dosing (qualitative ranking) [3]: best exposure after oral dosing
SMILES: Cl.Cl.Nc1nc(N2CCN(C[C@H](O)COCC(F)(F)F)CC2)nnc1-c1cccc(Cl)c1Cl [Compound 95, (S)-1-(4-(5-amino-6-(2,3-dichlorophenyl)-1,2,4-triazin-3-yl)-piperazin-1-yl)-3-(2,2,2-trifluoroethoxy)-propan-2-ol-2HCl]
MED (mg/kg) ([4]; AFP, Ph 1, timepoint 0.5 h, 500 mg/kg as 2 doses @ 250 mg/kg): 500 (Ph 1) mg/kg

IC50 [2, 6]: < 50 µM
IC50 [2, 8]: 108 µM and 91.5 µM and 130 µM
SMILES: Nc1nc(NCCOCCOCCOC(F)(F)F)nnc1-c1cccc(Cl)c1Cl [Compound 167, 6-(2,3-dichlorophenyl)-N^3-(2-(2-(2-(trifluoromethoxy)ethoxy)ethoxy)ethyl)-1,2,4-triazine-3,5-diamine]
MED ([4]; AFP, +ABT, timepoint 0.5 h, minimum effective dose): 100 mg/kg

IC50 [2, 6]: 60.1 µM and < 50 µM
IC50 [2, 8]: > 200 µM and 197 µM
SMILES: CC(C)(CO)Nc1nnc(-c2cccc(Cl)c2Cl)c(N)n1 [Compound 1, 2-((5-amino-6-(2,3-dichlorophenyl)-1,2,4-triazin-3-yl)amino)-2-methylpropan-1-ol]
MED (mg/kg) [4, 9]: 450 (Ph 2) mg/kg
ED50 ([4]; AFP, Ph 2, timepoint 0.5 h, read-out: ED50): 589 mg/kg

exposure after oral dosing (qualitative ranking) [3]: best exposure after oral dosing
SMILES: Nc1nc(NCCOCCOC(F)(F)F)nnc1-c1cccc(Cl)c1Cl [Compound 45, 6-(2,3-Dichlorophenyl)-N^3-(2-(2-(trifluoromethoxy)ethoxy)ethyl)-1,2,4-triazine-3,5-diamine]
MED (mg/kg) ([4]; AFP, Ph 2, timepoint 0.25 h, minimum effective dose): 30 (Ph 2) mg/kg
ED50 ([4]; AFP, Ph 2, timepoint 0.25 h, read-out: ED50): 46.8 mg/kg
ED50 ([5]; 0.5 h): 21 mg/kg
ED50 ([5]; 1 h): 18.9 mg/kg
MED ([5]; timepoints 0.5, 1 h, minimum effective dose): 30 mg/kg

SMILES: Nc1nc(N2CCN3C(=O)OC[C@H]3C2)nnc1-c1cccc(Cl)c1Cl [Compound 127, (R)-7-(5-amino-6-(2,3-dichlorophenyl)-1,2,4-triazin-3-yl)tetrahydro-1H-oxazolo[3,4-a]pyrazin-3(5H)-one]
IC50 [2, 7]: > 300 µM
IC50 ([2]; read-out: Tonic state IC50): > 200 µM
pharmacokinetics (qualitative ranking of the compounds tested) [3]: most favorable pharmacokinetics
exposure after oral dosing (qualitative ranking) [3]: best exposure after oral dosing
